Patent US5912224A, “Methods and compositions for enhancing cellular response to TGF-β ligands” (priority 1997, dated 1999)

Assays:
Mv1Lu cells [1] = test: Growth inhibition assay; assay type: cell-based, mink; details: for growth inhibition, macrolide alone: each alone, added to Mv1Lu cells
Method: Growth Inhibition Assay Mv1Lu cells were seeded in 12-well plate at 3×10^4 cells/well and incubated overnight. Cells were treated with 15-O-demethyl FK520 for 2 hours and with TGF-β for 36 to 40 hours in the presence of the drug. Cells were trypsinized, and cell numbers were determined in a Coulter counter.
To distinguish between these possibilities, both 15-O-desmethyl-FK520 and L685,818 were used to test the role of FKBP12 in the signaling events mediated by TGF-β, and yielded very similar results; here we report the results from using 15-O-desmethyl-FK520. In the absence of 15-O-desmethyl-FK520, TGF-β elicits two cellular responses when added into the mink lung epithelial cell line Mv1Lu: the growth inhibition response, which can be detected by a decrease in cell number, and the gene activation response, which can be measured by an increase in the luciferase activities resulting from the activation of a transfected luciferase reporter gene regulated by a Plasminogen Activator Inhibitor (PAI) promotor (Wrana, J. L. et al., Cell 71:1003-1014 (1992)). […] Therefore, FKBP12 binding to the TGF-β type I receptor is not necessary, but is inhibitory to the type I receptor mediated signaling, and release of FKBP12 is not sufficient for complete activation of the downstream signaling events in the absence of TGF-β.

FKBP12 = FKBP12 (Homo sapiens, UniProt P62942); details: cited from earlier work
Sequence of FKBP12 (P62942 whole entry): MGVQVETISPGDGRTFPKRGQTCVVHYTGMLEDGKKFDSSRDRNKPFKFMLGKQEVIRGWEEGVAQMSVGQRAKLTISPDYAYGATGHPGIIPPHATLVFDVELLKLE

Mullerian duct = test: Urogenital ridge organ culture assay (MIS-mediated Mullerian duct regression); set-up: species or system rat
Method: The organ culture assay was carried out as described previously (Donahoe, P. K. et al., J. Surg. Res. 23:141-148 (1977)). Briefly, urogenital ridges containing Wolffian and Mullerian ducts from 14.5 day female rat fetuses were maintained in CMRL media with 10% fetal calf serum, 100 units/ml penicillin, and 100 μg/ml streptomycin. To test the effect of the non-functional derivatives of FK506 (L685,818 or 15-O-desmethyl FK520) on Mullerian duct regression, the specimens were treated with the indicated doses of MIS in the presence or absence of the non-functional derivatives of FK506 and incubated at 37° C. in 5% CO2 and 95% air. After 72 hours, the specimens were fixed in formalin, dehydrated in an alcohol series, cleared in xylene, embedded in paraffin, cut in serial cross sections, stained with hematoxylin and eosin and graded for regression of the Mullerian duct as described (Donahoe, P. K. et al., J. Surg. Res. 23:141-148 (1977)).
Since FKBP12 binds to all known type I receptors, its inhibitory activity should therefore also be detected in the signaling events mediated by other TGF-β family members. Mullerian Inhibiting Substance (MIS) is a unique member of the TGF-β family known to be responsible for regression of the Mullerian duct in fetal males through an active apoptotic process (Jost, A., Arch. Anat. Micro. Morph. Exp. 36:271-315 (1947); Price, J. M. et al., Am. J. Anat. 149:353-376 (1977); Trelstad, R. L. et al., Devl. Bio. 92:27-40 (1982)). The activity of MIS in the regression of the Mullerian ducts can be measured directly in an organ culture assay (Donahoe, P. K. et al., J. Surg. Res. 23:141-148 (1977)). In this assay, urogenital ridges containing both the Wolffian duct and the Mullerian duct are isolated from fourteen and a half day female fetuses. […] When 1 μg MIS was added into the organ culture, grade 1.5 regression was observed, which histologically corresponds to a condensation of the mesenchymal cells surrounding a smaller and irregularly shaped Mullerian duct (FIG. 5, A, top panel). […] We further tested the effect of 1 μM 15-O-desmethyl-FK520 on the regression activities of different doses of MIS (FIG. 5, B).

Mv1Lu cells [2] = test: Transcriptional response assay (p3TP-lux luciferase reporter); assay type: cell-based, mink
Source text: Two TGF-β responsive mink lung epithelial cell lines Mv1Lu and L17, the latter being a highly transfectable clone of R1B lacking the functional type I receptor of TGF-β, were used in a transcriptional response employing a DEAE-dextran method (Bassing, C. et al., Science 263:87-89 (1994); Wrana, J. L. et al., Nature 370:341-47 (1994)). Briefly, cells grown to 50% confluency in 6-well plates were transiently transfected with the transcriptional response reporter construct p3TP-lux alone or together with different constructs of the type I receptor. Sixteen to twenty hours after transfection, cells were treated with TGF-β in 0.2% serum medium for 24 to 28 hours. For testing the effect of FK506 derivative 15-O-desmethyl FK520, cells were treated with the drug beginning two hours prior to the addition of TGF-β. Cell lysates were made and luciferase activity was measured in a luminometer. Each assay was carried out in duplicate or triplicate.
To distinguish between these possibilities, both 15-O-desmethyl-FK520 and L685,818 were used to test the role of FKBP12 in the signaling events mediated by TGF-β, and yielded very similar results; here we report the results from using 15-O-desmethyl-FK520. […]

[3] = tested on: FKBP12 (T7 tagged) binding to TGF-β type I receptor (R4); test: R4/FKBP12 co-immunoprecipitation competition in transfected COS cells; assay type: cell-based; details: for block of R4/FKBP12 co-immunoprecipitation: 100 nM derivative, COS cells transfected with R4 and T7 tagged FKBP12
Method: For testing FKBP12 binding to ligand-free TGF-β type I receptor (either wild type or mutants) by co-immunoprecipitations, COS1 cells grown in P-100 dishes were transfected with 4 μg of T7 tagged FKBP12 in pCMV8 and 6 μg of R4 (or mutant R4) in pCMV6 using the DEAE-dextran method. In the case of using metabolic labeling to detect co-precipitation of FKBP12 and R4, 40-44 hours after transfection COS1 cells were incubated for 4 hours with 50 μCi/ml [^35 S]-methionine in methionine-free media and lysed in lysis buffer (20 mM Tris-HCl [pH 7.4], 150 mM NaCl, 0.5% Triton X-100, 1 mM EDTA) in the presence of a mixture of protease inhibitors. Anti-T7 monoclonal antibody (5 μl) was added into 200 μl of cell lysates, incubated at 4° C. for 2 hours, absorbed with protein A sepharose beads, and washed three times with wash buffer (20 mM Tris-HCl [pH 7.4], 150 mM NaCl, 0.1% Triton X-100, 1 mM EDTA). Proteins were eluted from the sepharose beads using 2× SDS-PAGE denaturing sample buffer, separated on 15% SDS-PAGE. The gel was treated with Autofluor (National Diagnostic), dried and subjected to autoradiography for 48 hours. In the case of using Western blot to detect co-precipitated T7 tagged FKBP12, cell lysates were immunoprecipitated with 10 μl of VPN antiserum, which recognizes a juxtamembrane region of the TGF-β type I receptor (Franzen, P. et al., Cell 75:681-692 (1993)). The immunoprecipitates were separated on 15% SDS-PAGE, electrotransferred onto nitrocellulose membrane, blotted using anti-T7 monoclonal antibody, and detected by ECL (Amersham).
For testing the effect of non-functional FK506 derivatives (L685,818 from Merck Laboratories and 15-O-desmethyl-FK520 from Sandoz) on FKBP12 binding to R4, 2 hours after transfection COS1 cells were treated with the derivatives for […] and then labeled for 4 hours with 50 μCi/ml [^35 S]-methionine in methionine-free media 40-44 hours after transfection. Cells were then lysed and immunoprecipitation was carried out as described above. […]

[4] = in vivo; cited from earlier work
[5] = biological target: FKBP12 mutant (G89P, 190K) (Homo sapiens, UniProt P62942, G90P/I91K); details: mutations within the 80s loop; cited from earlier work
Sequence of FKBP12 mutant (G89P, 190K) (P62942 2-108 G90P/I91K limits assumed): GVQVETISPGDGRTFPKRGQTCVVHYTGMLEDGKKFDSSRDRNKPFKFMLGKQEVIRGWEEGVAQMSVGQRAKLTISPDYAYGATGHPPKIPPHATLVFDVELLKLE

[6] = tested on: FKBP12 mutant D37G (mFKBP12); details: point mutation within the macrolide binding site; cited from earlier work
[7] = biological target: T1, FKBP12 binding to R4C (cytoplasmic domain of TGF-β type I receptor) (Rattus norvegicus, UniProt Q62658); details: excess macrolide, yeast cells; cited from earlier work
T1 construct: host or cells: yeast (two-hybrid)
T1 sequence (Q62658 whole entry, the tested form may be a part): as the sequence (P62942 whole entry) above, with P10S, M50T, T76I counted along it

[8] = macrolide up to 1 μM together with TGF-β 15 pM

Structure (SMILES) | growth inhibition response, macrolide alone (Mv1Lu cells [1]; 1 μM alone, no TGF-β) | TGF-β growth inhibition response (decrease in cell number) (Mv1Lu cells [1]; [8]) | affinity for FKBP12 (FKBP12) | Mullerian duct regression (Mullerian duct; 1 μM macrolide alone, no MIS) | Mullerian duct regression grade (0 no regression to 5 complete regression) (Mullerian duct; 1 μM macrolide together with 1 μg MIS) [grade] | regression activity of 0.1 μg MIS in presence of macrolide (Mullerian duct; 1 μM macrolide with 0.1 μg MIS, compared with 1 μg MIS alone) | gene activation response, macrolide alone (Mv1Lu cells [2]; 1 μM alone, no TGF-β) | TGF-β gene activation response (luciferase activity) (Mv1Lu cells [2]; [8]) | block of R4/FKBP12 co-immunoprecipitation [3] | toxicity in animal models [4] | growth inhibition, macrolide alone (Mv1Lu cells [1]) | binding to FKBP12 (G89P, 190K) [5] | binding to FKBP12 D37G [6] | competition for binding of R4C to FKBP12 [7] | Mullerian duct regression grade (Mullerian duct; 500 nM macrolide alone) [Grade] | Mullerian duct regression (Mullerian duct; 500 nM macrolide together with 2 μg MIS) | block of R4 interaction with FKBP12 ([3]; 50 nM, COS cells, FIG. 4A lane 3)
CC[C@@H]1/C=C(\C)C[C@H](C)C[C@H](O)[C@H]2O[C@@](O)(C(=O)C(=O)N3CCCC[C@H]3C(=O)O[C@H](/C(C)=C/[C@@H]3CC[C@@H](O)[C@H](OC)C3)[C@H](C)[C@@H](O)CC1=O)[C@H](C)C[C@@H]2OC [15-O-desmethyl-FK520] | Neither of the responses were detected | greatly enhanced | binds with high affinity | no regression activity was detected | 5 | more biological activity than 1 μg MIS alone | Neither of the responses were detected | greatly enhanced | able to block R4/FKBP12 co-immunoprecipitation | do not induce toxicity |  |  |  |  |  |  | 
C=CC[C@@H]1/C=C(\C)C[C@H](C)C[C@H](OC)[C@H]2O[C@@](O)(C(=O)C(=O)N3CCCC[C@H]3C(=O)O[C@H](/C(C)=C/[C@@H]3CC[C@@H](O)[C@H](OC)C3)[C@H](C)[C@@H](O)CC1=O)[C@H](C)C[C@@H]2OC [FK506] |  |  | bind strongly |  |  |  |  |  |  |  | exhibited growth inhibition activities | without affecting | abolishes FKBP12 binding | could partially compete |  |  | 
CC[C@@H]1/C=C(\C)C(O)[C@H](C)C[C@H](OC)[C@H]2O[C@@](O)(C(=O)C(=O)N3CCCC[C@H]3C(=O)O[C@H](/C(C)=C/[C@@H]3CC[C@@H](O)[C@H](OC)C3)[C@H](C)[C@@H](O)CC1=O)[C@H](C)C[C@@H]2OC (stereo partly drawn) [L685,818] |  |  | binds with high affinity |  |  |  |  |  | able to block R4/FKBP12 co-immunoprecipitation | do not induce toxicity |  |  |  |  | 1 | complete regression | block R4 interaction with FKBP12
CO[C@H]1C[C@@H]2CC[C@@H](C)[C@@](O)(O2)C(=O)C(=O)N2CCCC[C@H]2C(=O)O[C@H]([C@H](C)C[C@@H]2CC[C@@H](O)[C@H](OC)C2)CC(=O)[C@H](C)/C=C(\C)[C@@H](O)[C@@H](OC)C(=O)[C@H](C)C[C@H](C)/C=C/C=C/C=C/1C [rapamycin] |  |  | bind strongly |  |  |  |  |  |  |  | exhibited growth inhibition activities |  | abolishes FKBP12 binding |  |  |  | 
